Patent US20240417404A1, “CRYSTALLINE FORMS OF N-[4-[4-(4-MORPHOLINYL)-7H-PYRROLO[2,3-d]PYRIMIDIN-6-YL]PHENYL]-4-[[3(R)-[(1-OXO-2-PROPEN-1-YL)AMINO]-1-[sequence]]METHYL]-2-PYRIDINECARBOXAMIDE AS IRREVERSIBLE INHIBITORS OF MENIN-MLL INTERACTION” (BIOMEA FUSION, INC., priority 2023, published 2024)

How the values were obtained:
Assay type in all cases: cell-based
[1] = system: human pancreatic islet beta cells; assay: Beta cell proliferation in human islet microtissues
Experimental: Human islet microtissues were aggregated for 5 days and then released into ultra-low attachment plates. Half of the plates were maintained in standard culture medium (5.5 mM glucose), and half were cultured in high-glucose culture medium (GTX, 8 mM glucose) starting at Day 6, for the duration of the whole experiment. Starting on Day 9 (after 3 days of GTX pre-treatment for the relevant plates), dosing with compounds was initiated, using a Tecan D300e Digital Dispenser. DMSO was normalized by volume across all wells. Media were exchanged and compounds were redosed every 2-3 days throughout the experiment. Compound dosing was randomized; to avoid compound cross-contamination between wells, all medium exchanges were performed using 96-well deep well plates with pipette tip exchange.
FIG. 32 provides human pancreatic islet beta cell proliferation on Day 14 and Day 21. In FIG. 32, A is ATP content; B is proliferating beta cell fraction; and C is beta cell fraction. Upper graphs are standard media, and lower graphs are high glucose media. […]
Individual islet microtissues can be cultured in 96-well culture plates and maintained in the presence of Compound 10, a representative irreversible menin-MLL inhibitor, at the appropriate concentration. […] Following 2 or more weeks of culturing, proliferation of beta cells is monitored via immunofluorescence staining for appropriate markers. […]

[2] = system: BCL2 transcript in MOLM-13 AML cells; assay: RNA-seq gene expression in MOLM-13 cells; conditions: twenty-four hours post treatment, relative to vehicle control
Experimental: MOLM-13 and MiaPaCa-2 cells were incubated with Compound A for twenty-four hours and were analyzed by RNA-seq on an Illumina NextSeq 550 platform. […] Cell viability was measured using CellTiter Glo. Human ex vivo PDX tissue models harboring KRAS mutations were cultured with Compound A and clinical reversible menin inhibitors for six days. Cell viability was measured using CellTiter Glo.
Compound A elicits >90% reduction of BCL2 transcript at twenty-four hours post treatment in MOLM-13 cells as the gene expression data is not in CLL cells. Fold change was calculated relative to vehicle control (FIG. 39). Compound A achieves >98% cell lethality against diverse CLL ex vivo models (FIGS. 40A-40E).

[3] = system: DOHH2; assay: DLBCL cell line proliferation (Cell Titer Glo, four days): DOHH2; conditions: DOHH2, DHL, MYC/BCL2
Experimental: (§1) DLBCL cell line TOLEDO was cultured in the presence of Compound A or clinical reversible menin inhibitors for six and fourteen hours. Menin protein expression was reduced up to 60% at 1 μM by Compound A after fourteen hours compared to clinical reversible inhibitors at <20% at similar concentrations. Menin protein expression was measured by the Wes system and analyzed using the Compass software (automated western blotting, Protein Simple). Signal was normalized to GAPDH and referenced to DMSO control (FIG. 36E). DLBCL and MM cell lines were cultured with Compound A, bortezomib (PS-341), or DMSO for four days and cell proliferation was measured by Cell Titer Glo. Ex vivo studies of DLBCL and MM models were conducted by measurement of cell proliferation (Cell Titer Glo) after six days of treatment with Compound A, PS-341, or DMSO control.

[4] = system: MM patient-derived bone marrow mononuclear cells (BMMCs); assay: Ex vivo MM patient-derived bone marrow mononuclear cells (Cell Titer Glo, six days); conditions: Homo sapiens, BMMC; panel of newly diagnosed and R/R ex vivo MM samples, single agent
Experimental: Compound A was tested against a THL cell line (VAL), and a DEL cell line (U2932). An expanded panel of DHL cell lines were tested for sensitivity to Compound A. Ex vivo patient samples of THL and MYC-amplified DLBCL were tested with Compound A. Sensitivity of THL and MYC-driven DLBCL in both in vitro and ex vivo models were compared with clinical reversible menin inhibitors. Compound A was tested against a panel of MM cell lines and ex vivo MM patient samples of p53del, 13qdel, and relapsed/refractory cases.
as §1

C=CC(=O)N[C@@H]1CCCN(Cc2ccnc(C(=O)Nc3ccc(-c4cc5c(N6CCOCC6)ncnc5[nH]4)cc3)c2)C1 [Compound A, N-[4-[4-(4-morpholinyl)-7H-pyrrolo[2,3-d]pyrimidin-6-yl]phenyl]-4-[[3(R)-[(1-oxo-2-propen-1-yl)amino]-1-piperidinyl]methyl]-2-pyridinecarboxamide]
human pancreatic islet beta cell proliferation (proliferating beta cell fraction) ([1]; Day 14 and Day 21, compared to control): induced human pancreatic islet beta cells substantially compared to control
beta-cell proliferation ([1]; glucose stress (8 mM glucose) vs standard glucose (5.5 mM)): dose dependent increase in beta-cell proliferation under glucose stress condition, but not under standard glucose conditions
reduction of BCL2 transcript [2]: > 90%
Average % Max Inhibition by Compound A [3]: 99.7%
IC50 [4]: 100 to 300 nM
